Results as given in patent publication US20050267204A1, “Synergistic gold-containing compositions” (MEDICAL INNOVATIONS LIMITED, priority 1996, published 2005).
Where two headings read alike, the source gives them in different places.

Legend:
Format in all cases: in vivo, BALB/c mice
epidermal thickness = test: Time course of TPA effects on skin of mice: epidermal thickness; settings: for Increase in epidermal thickness: single application 100 μL TPA 0.01% in acetone
Protocol: (§1) Epidermal thickness was determined by image analysis. This image analysis system was a minicomputer (Tracor Northern TN8500) attached to a light microscope (Zeiss Axioplan) and a camcorder (Sony DXC-3000P). Sections were taken from each tissue block and 20 measurements were taken at fixed intervals from each section. The average value for the 20 measurements was obtained and entered as one value for each mouse. The mean and SEM for the six mice in each treatment group were calculated.
(§2) This study was conducted to determine the time course of effects produced by applying TPA to mice and killing at intervals of 1, 2, 3, 5 and 8 days. Peak times for epidermal hyperplasia, dermal inflammation and skin-fold thickness were determined. The object of this study was to determine the best time to sacrifice TPA-treated mice so as to obtain the maximum response to TPA. […] It was thus expected that a compromise time would have to be selected.
(§3) Forty two female BALB/c strain mice were divided into the treatment groups and the mice were treated with a single application (100 μL) of TPA (0.01% in acetone) and sacrificed at days 1, 2, 3, 5 and 8 and the time course of TPA effects on epidermal hyperplasia, dermal inflammatory cell infiltration and skin-fold thickness measured as described in Example 1.

skin-fold thickness = test: Time course of TPA effects on skin of mice: skin-fold thickness; settings: for Increase in skin-fold thickness: single application 100 μL TPA 0.01% in acetone
Protocol: The back skin of shaved mice was folded and measured by using a “Etalon” micrometer screw gauge. One measurement was taken for each mouse.
as §2, §3

[1] = tested on: dermal inflammatory cell density; test: Time course of TPA effects on skin of mice: dermal inflammatory cell density; settings: for Increase in dermal inflammatory cell density: single application 100 μL TPA 0.01% in acetone
Protocol: (§4) Infiltration of inflammatory cells was determined by the same image analysis system using the section taken from the block of mouse skin embedded in paraffin wax or Spurr's resin and stained with haematoxylin and eosin or toluidine blue respectively. For each section, 10 fields, unless otherwise stated, were chosen randomly and the cell density per mm^2 of field determined. The average value for the 10 fields was obtained and entered as one value for each mouse. The mean and SEM for the six mice in each treatment group were calculated.
The measurement of the inflammatory cell infiltration included the background values which included other materials in the dermis stained in the same way. However, the increase, if there is any, reflects the migration of inflammatory cells.
as §2, §3

[2] = tested on: TPA-induced epidermal hyperplasia; test: Inhibition of TPA-induced epidermal hyperplasia (epidermal thickness) on back skin of mice; settings: for IC50 / Emax: Mus musculus; for Emax: read-out: Emax (% inhibition); for Relative potency: hydrocortisone acetate = 1.0; for Potency for inhibition of TPA-induced epidermal hyperplasia (in words): ranking in text
Protocol: (§5) The mice were housed in stainless steel cages, 6 mice per cage under normal laboratory conditions (room temperature at about 22° C.) at least 7 days before the experiments for acclimatization. Food and water were allowed ad libitum throughout the experiment period. The backs of the mice were shaved with an electric clipper two days before each treatment and only those mice showing no hair regrowth were used (i.e., the mice in the resting phase of the hair growth cycle were selected). During treatment, the mice were held with their tails and put on top of the cage so that they grasped the cage and rested there. The solutions were applied to an area approximately 2 cm×2 cm on the shaved back of the mice by using a “Pipetman” to apply the solution. If auranofin ointment or ointment base was applied, the amount was standardized by using a microspatula which was crimped at one end, the ointment was then put into the ridge and the excess removed by means of another microspatula and applied sparingly twice a day. After a fixed time, the mice were killed routinely by cervical dislocation between 9 a.m. and 11 a.m. to avoid variations due to circadian rhythms, and an area (1 cm×1 cm) was excised from the centre of the treated area by scalpel and scissors. The rest of the tissues were disposed by combustion. The tissues were then fixed, embedded, sectioned and stained.
as §1
(§6) The percent inhibition of drug on TPA-induced skin responses (i.e., epidermal hyperplasia, inflammatory cell infiltration and skin-fold thickness) was calculated by using the following formula: [formula]
(§7) This provides estimates of (a) the potency, (b) the efficacy or maximum effect (Emax) and the slope of the log concentration-response curve by using Hill coefficient (γ). The Hill Equation may be expressed as follows: [formula] where IC50 is the drug concentration producing 50% of the maximal response and Emax refers to the maximal effect produced by the drug and is also termed efficacy. Efficacy is the measurement of the intrinsic ability of a drug to initiate a response once it occupies receptor sites. […] The Hill coefficient (γ) measures the slope of the dose-effect curve which can be markedly influenced by the shape of the curve that describes the binding of the drug to the receptor. For many drugs, y lies between 0.6 and 1.5. […] On the other hand, when γ is less than 1, with a shallow hyperbolic concentration effect relationship, the activity occurs over a wide range of drug levels.
(§8) In the present study, concentration-response curves were obtained for a series of corticosteroids. In these experiments, curve fitting was accomplished using a computer programme called “The Scientist” (MicroMath Scientific Software, Salt Lake City, Utah, USA.) in which the parameters, Emax, IC50 and Hill coefficient (γ) for each steroids were estimated by using non-linear regression and least square fits.
Mice were divided into treatment groups. TPA and corticosteroids were premixed to the concentrations required and applied to the backs of mice immediately. For those steroids not very soluble in acetone (i.e., betamethasone, dexamethasone, hydrocortisone and hydrocortisone acetate), the drugs were dissolved in 100 μL dimethylformamide before further dilution with acetone. The efficacy of corticosteroids in inhibiting epidermal hyperplasia, inflammatory cell infiltration and skin-fold thickness was assessed as described previously. Concentration-response curves were determined after computer-fitting of data.

[3] = tested on: TPA-induced inflammatory cell infiltration into the dermis; test: Inhibition of TPA-induced inflammatory cell infiltration into the dermis of mice; settings: for IC50 / Emax: Mus musculus; for Emax: read-out: Emax (% inhibition); for Relative potency: hydrocortisone acetate = 1.0; for Potency for inhibition of TPA-induced inflammatory cell infiltration (in words): ranking in text
Protocol: as §5, §4
The measurement of the inflammatory cell infiltration included the background values which included other materials in the dermis stained in the same way.
as §6, §7, §8
Mice were divided into treatment groups. TPA and corticosteroids were premixed to the concentrations required and applied to the backs of mice immediately.

[4] = from Hill equation, concentration that produced 50% of Emax, read-out: IC50 for inhibition of epidermal thickening (M × 10^−4)
[5] = read from concentration-response curve, concentration that inhibited 50% of the TPA effect, read-out: IC50 for inhibition of epidermal thickening (M × 10^−4)
[6] = topical, Hill equation fit, means ± SD, steroid premixed with TPA, topical, read-out: IC50 (M × 10^−4)
[7] = Hill equation fit, means ± SD, steroid premixed with TPA, topical
[8] = from Hill equation, concentration that produced 50% of Emax, read-out: IC50 for inhibition of inflammatory cell infiltration in the dermis (M × 10^−4)
[9] = read from concentration-response curve, concentration that inhibited 50% of the TPA effect, read-out: IC50 for inhibition of inflammatory cell infiltration in the dermis (M × 10^−4)
[10] = IC50 without auranofin divided by IC50 with auranofin (0.2%)
[11] = with auranofin (0.2%), from computer fitted graph, means ± SD, read-out: Apparent IC50 (M × 10^−4) with auranofin
[12] = without auranofin, from computer fitted graph, means ± SD, read-out: Apparent IC50 (M × 10^−4) without auranofin

CCCCCCCCCCCCCC(=O)O[C@@H]1[C@@H](C)[C@@]2(O)[C@@H](C=C(CO)C[C@]3(O)C(=O)C(C)=C[C@@H]23)[C@@H]2C(C)(C)[C@]12OC(C)=O [TPA, 12-O-tetradecanoylphorbol 13-acetate]
Increase in epidermal thickness (epidermal thickness; Day 1): 326%
Increase in epidermal thickness (epidermal thickness; Day 2): 382%
Increase in epidermal thickness (epidermal thickness; Day 3): 393%
Increase in epidermal thickness (epidermal thickness; Day 5): 270%
Increase in epidermal thickness (epidermal thickness; Day 8): 130%
Time of peak effect, epidermal hyperplasia (epidermal thickness; single application of TPA): 72 h
Increase in skin-fold thickness (skin-fold thickness; Day 1): 193%
Increase in skin-fold thickness (skin-fold thickness; Day 2): 142%
Increase in skin-fold thickness (skin-fold thickness; Day 3): 124%
Increase in skin-fold thickness (skin-fold thickness; Day 5): 116%
Increase in skin-fold thickness (skin-fold thickness; Day 8): 107%
Time of peak effect, skin-fold thickening (skin-fold thickness; single application of TPA): 24 h
Increase in dermal inflammatory cell density ([1]; Day 1): 397%
Increase in dermal inflammatory cell density ([1]; Day 2): 296%
Increase in dermal inflammatory cell density ([1]; Day 3): 272%
Increase in dermal inflammatory cell density ([1]; Day 5): 280%
Increase in dermal inflammatory cell density ([1]; Day 8): 225%
Time of peak effect, dermal inflammation ([1]; single application of TPA): 24 h

CC1(C)O[C@@H]2C[C@H]3[C@@H]4CCC5=CC(=O)CC[C@]5(C)[C@@]4(F)[C@@H](O)C[C@]3(C)[C@]2(C(=O)CCl)O1 [Halcinonide]
IC50 [2, 4]: 97 µM
IC50 [2, 5]: 110 µM
IC50 [2, 6]: 97 ± 13 µM
Emax [2, 7]: 92.5 ± 2.98%
Relative potency ([2]; from Hill-equation IC50): 37.80
Relative potency ([2]; from IC50 read from curve): 63.64
Potency for inhibition of TPA-induced epidermal hyperplasia (in words) [2]: medium to strong potencies
IC50 [3, 8]: 31 µM
IC50 [3, 9]: 60 µM
IC50 [3, 6]: 31 ± 5 µM
Emax [3, 7]: 90.3 ± 6.29%
Relative potency ([3]; from Hill-equation IC50): 249.45
Relative potency ([3]; from IC50 read from curve): 183.33
Potency for inhibition of TPA-induced inflammatory cell infiltration (in words) [3]: medium to strong potencies

CC1(C)O[C@@H]2C[C@H]3[C@@H]4C[C@H](F)C5=CC(=O)C=C[C@]5(C)[C@@]4(F)[C@@H](O)C[C@]3(C)[C@]2(C(=O)CO)O1 [Fluocinolone acetonide, fluocinolone acetonide]
Synergistic factor [2, 10]: 13.13
IC50 [2, 4]: 39 µM
IC50 [2, 5]: 21 µM
IC50 [2, 6]: 39 ± 14 µM
IC50 [2, 11]: 1.6 ± 0.2 µM
IC50 [2, 12]: 21 ± 14 µM
Emax [2, 7]: 89.6 ± 6.93%
Synergism with auranofin, epidermal hyperplasia (in words) ([2]; auranofin (0.2%) co-administered): massive synergism
Relative potency ([2]; from Hill-equation IC50): 94.03
Relative potency ([2]; from IC50 read from curve): 333.33
Percent increase in the apparent potency of the steroid ([2]; in presence of auranofin (0.2%)): 1,300%
Potency for inhibition of TPA-induced epidermal hyperplasia (in words) [2]: strong to very strong potencies
Synergistic factor [3, 10]: 2.27
IC50 [3, 8]: 16 µM
IC50 [3, 9]: 25 µM
IC50 [3, 6]: 16 ± 2 µM
IC50 [3, 11]: 11 ± 1.3 µM
IC50 [3, 12]: 25 ± 0.2 µM
Emax [3, 7]: 79.6 ± 2.41%
Relative potency ([3]; from IC50 read from curve): 440
Potency for inhibition of TPA-induced inflammatory cell infiltration (in words) [3]: most potent agent
Potency for inhibition of TPA-induced inflammatory cell infiltration (in words) ([3]; listed as fluocinolone acetonide): strong to very strong anti-inflammatory effect
